Laboratory results reported in patent US7413853B2, “Modulation of metabolism of steroids and xenobiotics” (The Salk Institute for Biological Studies, priority 2001, dated 2008).

Assays:
PXR [1] = target: T1, PXR (Mus musculus, UniProt O54915); details: tk-UGT1A6/DR-3-Luc, CV-1 cells
T1 sequence (O54915 1-431): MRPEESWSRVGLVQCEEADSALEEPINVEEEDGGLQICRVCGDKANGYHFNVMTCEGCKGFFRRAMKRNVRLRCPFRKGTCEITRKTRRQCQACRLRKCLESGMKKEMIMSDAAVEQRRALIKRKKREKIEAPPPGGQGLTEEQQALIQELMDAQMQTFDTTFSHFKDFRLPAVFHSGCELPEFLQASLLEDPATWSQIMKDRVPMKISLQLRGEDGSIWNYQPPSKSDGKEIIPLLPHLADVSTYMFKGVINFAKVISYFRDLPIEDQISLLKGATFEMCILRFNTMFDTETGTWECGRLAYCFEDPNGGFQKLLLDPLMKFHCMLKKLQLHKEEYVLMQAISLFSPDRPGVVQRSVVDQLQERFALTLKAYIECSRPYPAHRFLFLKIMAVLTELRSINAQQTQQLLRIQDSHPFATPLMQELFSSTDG
Excerpt: (§1) The reporter gene comprises a thymadine kinase (TK) linked to UGT1A6/DR-3 linked to a luciferace (LUC).
(§2) In an exemplary assay, a luciferase reporter gene containing the UGT1A6/DR-3 upstream of a minimal thymidine kinase (tk) promoter was constructed and transfected into monkey kidney CV-1 cells together with expression vectors for SXR, PXR, or CAR.
(§3) In FIG. 2, the tk-UGT1A6/DR3-Luc construct comprises a UGT inverted or direct repeat and/or a nuclear receptor binding site such that activation of the response element results in transcription of UGT. […] The response element can also comprise an inverse repeat of a suitable half site separated by a 6 nucleotide spacer, or an inverse repeat of a variant thereof, separated by a 6 nucleotide spacer.

SXR [2] = target: T2, SXR (Homo sapiens, UniProt O75469)
T2 sequence (O75469 1-434): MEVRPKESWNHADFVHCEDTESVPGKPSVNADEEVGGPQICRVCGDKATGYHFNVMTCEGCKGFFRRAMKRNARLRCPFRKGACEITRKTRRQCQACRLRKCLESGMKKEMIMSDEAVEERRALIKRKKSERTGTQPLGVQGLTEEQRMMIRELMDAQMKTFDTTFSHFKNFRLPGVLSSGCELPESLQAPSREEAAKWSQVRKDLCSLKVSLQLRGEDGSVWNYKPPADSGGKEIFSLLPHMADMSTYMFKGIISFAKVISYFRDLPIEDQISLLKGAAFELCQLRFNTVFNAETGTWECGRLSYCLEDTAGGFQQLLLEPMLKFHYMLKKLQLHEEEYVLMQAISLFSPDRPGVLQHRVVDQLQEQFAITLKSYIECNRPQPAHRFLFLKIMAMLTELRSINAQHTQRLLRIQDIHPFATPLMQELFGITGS
Excerpt: as §1, §2, §3

[3] = system: rat CYP3A23 gene cellular promoter
Experimental: (§4) The PCR-amplified sequences and target mutagenesis were confirmed by DNA sequencing.
(§5) All compounds were purchased from Sigma.
The above notion would predict: (1) The SXR/PXR response element is essential for the activation of CYP3A genes; and (2) The response elements of SXR and PXR are interchangeable. Therefore, mutagenesis analysis was performed on the promoter of the rat CYP3A23 gene to examine these predictions.

[4] = system: human CYP3A4 gene cellular promoter; details: hepatocytes
Excerpt: as §4, §5

SXR [5] = assay: Activation of SXR in transfection-based assays
Experimental: To characterize its response properties, a large variety of steroids, including intermediate and major products of known steroid biosynthetic pathways were tested.

PXR [6] = target: T1, PXR; assay: Activation of mouse receptor PXR by the panel of compounds
CYP3A11 gene = details: mouse, in vivo
Experimental: The animals were allowed free access to food and water at all times. […] When necessary, mice were treated with a single intraperitoneal injection of DEX (50 mg/kg), PCN (40 mg/kg), or CTZ (50 mg/kg).
To examine the drug response of the endogenous liver CYP3A11 gene, animals were treated with single dose of compounds 24 h before sacrifice, and the CYP3A11 gene expression was evaluated by Northern blot analysis on liver total RNA. […] To detect specific transcripts, [^32P]-cDNA probes labeled by Random Primer Labeling Kit (Boringher) were hybridized to the membranes. The probe used to detect transgene contains both the SXR cDNA and the SV40 sequences. […] The filters were subsequently stripped and rehybridized with a murine glyceraldehyde-3-phosphate dehydrogenase (GAPDH) cDNA probe for RNA loading normalization.
Tissues were harvested 24 h later and subjected to Northern blot analysis. Membranes were probed with CYP3A11 cDNA probe, and were subsequently stripped and re-probed with GAPDH and transgene specific probes.

activation of the UGT reporter by SXR (SXR [2]) | SMILES | PXR-mediated UGT activation (PXR [1]) | PXR and/or SXR-mediated activation of mutated CYP3A23 promoter [3] | inducibility of CYP3A23 promoter with DR-3 replaced by IR-6 [3] | induction of CYP3A23 cellular promoter reporter [3] | activation of CYP3A4 cellular promoter reporter [4] | activation of SXR by compounds known to induce CYP3A4 (SXR [5]) | SXR activation of DR-3, DR-4 and DR-5 elements (SXR [5]; series of transfections) | activation of SXR (SXR [5]; transfection-based assays, steroids tested) | activation of PXR (PXR [6]) | activation of CYP3A23 cellular promoter reporter [3] | induction of liver CYP3A11 expression (CYP3A11 gene)
Significant activation | Clc1ccccc1C(c1ccccc1)(c1ccccc1)n1ccnc1 [CTZ, clotrimazole] | activation was seen | abolished | successfully rescue the inducibility | significant induction |  |  |  |  |  |  | 
 | CC(=O)[C@H]1[C@H](C#N)C[C@H]2[C@@H]3CC=C4C[C@@H](O)CC[C@]4(C)[C@H]3CC[C@@]21C [PCN, pregnenolone-16-carbonitrile] | activation was seen | abolished | successfully rescue the inducibility | remained unchanged | can be activated | weak activator | among the best activators | activated | preferentially activated | most potent and efficacious tested activators | equally efficacious
